Like-named read-outs stand apart in the source and are kept apart here.
Target: recombinant eIF4E (Homo sapiens (Human), UniProt P06730)
Experiment: Fluorescence polarization competition assay for eIF4E binding potency
Summary of the method: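 IC50 derived from fluorescence polarization over an 8-point, 3-fold compound series after 30 min room-temperature equilibration in the dark. Mix: eIF4E 75 nM pre-bound 5 min to 20 nM EDA-m^7GDP-ATTO-550; buffer 20 mM Tris pH 7.5, 100 mM NaCl, 1 mM DTT, 0.02% Tween-20; DMSO 1%.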

[1] = fluorescence polarization competition, 75 nM recombinant eIF4E, 20 nM EDA-m7GDP-ATTO-550, IC50 class, read-out: elF4E FP
[2] = inhibition of eIF4E/EDA-m7GDP-ATTO-550 binding by 50%, Table 4B calculated values, read-out: IC50

recombinant eIF4E, sequence (P06730 whole entry): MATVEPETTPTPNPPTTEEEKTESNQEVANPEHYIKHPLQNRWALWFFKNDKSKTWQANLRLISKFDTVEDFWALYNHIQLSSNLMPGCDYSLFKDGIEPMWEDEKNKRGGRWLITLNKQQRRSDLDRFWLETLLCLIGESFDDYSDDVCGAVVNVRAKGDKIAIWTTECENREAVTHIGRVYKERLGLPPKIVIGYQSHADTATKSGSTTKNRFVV

Structure (SMILES) | IC50 [1] [nM] | IC50 [2] [nM]
Cc1nc2cc(C(F)(F)F)cc(C#N)c2c(=O)n1CCOc1cnc(C#N)nc1-c1ccnc2c(C(=O)O)csc12 [compound 455] | 50 to 1000 | 473
Cc1nc2cc(OC(F)(F)F)cc(C#N)c2c(=O)n1CCOc1ccc(Cl)cc1-c1ccnc2c(C(=O)O)csc12 [compound 456] | < 50 | 10.9
Cc1nc2ccc(OCCN(C)C)c(C#N)c2c(=O)n1CCOc1ccc(Cl)cc1-c1ccnc2c(C(=O)O)csc12 [compound 457] | < 50 | 11.2
Cc1nc2cc(CN(C)C)c(OC(F)F)c(C#N)c2c(=O)n1CCOc1ccc(Cl)cc1-c1ccnc2c(C(=O)O)csc12 [compound 458] | < 50 | 36.8
Cc1cc(-c2cc(Cl)ccc2OCCn2c(C)nc3c(C)nc(-c4ccccc4F)c(C#N)c3c2=O)c2scc(C(=O)O)c2n1 [compound 476] | < 50 | 33.9
Cc1ccc(-c2nc(C)c3nc(C)n(CCOc4ccc(Cl)cc4-c4cc(C)nc5c(C(=O)O)csc45)c(=O)c3c2C#N)cc1 [compound 477] | < 50 | 
Cc1cc(-c2cc(Cl)ccc2OCCn2c(C)nc3c(C)nc(-c4ccccc4C)c(C#N)c3c2=O)c2scc(C(=O)O)c2n1 [compound 479] | < 50 | 
Cc1cc(-c2cc(Cl)ccc2OCCn2c(C)nc3c(C)nc(-c4ccc(Cl)cc4)c(C#N)c3c2=O)c2scc(C(=O)O)c2n1 [compound 480] | < 50 | 7.39
Cc1cc(-c2cc(Cl)ccc2OCCn2c(C)nc3c(C)nc(-c4ccccc4Cl)c(C#N)c3c2=O)c2scc(C(=O)O)c2n1 [compound 482] | < 50 | 
Cc1cc(-c2cc(Cl)ccc2OCCn2c(C)nc3c(CN4CCN(C)CC4)c(C(F)(F)F)cc(C#N)c3c2=O)c2scc(C(=O)O)c2n1 [compound 483] | < 50 | 42.1
Cc1nc2cc(C(F)(F)F)cc(C#N)c2c(=O)n1CCOc1ccc(Cl)cc1-c1cc(CO)nc2c(C(=O)O)csc12 [compound 484] | < 50 | 11.6
Cc1cc(-c2cc(Cl)ccc2OCCn2c(C)nc3cc(C(F)(F)F)c(CN4CCN(C)CC4)c(C#N)c3c2=O)c2scc(C(=O)O)c2n1 [compound 485] | < 50 | 8.59
Cc1cc(-c2cc(Cl)ccc2OCCn2c(C)nc3c(F)cc(C(F)F)c(C#N)c3c2=O)c2scc(S(=O)(=O)O)c2n1 [compound 488] | < 50 | 
COCc1cc(-c2cc(Cl)ccc2OCCn2c(C)nc3cc(C(F)(F)F)c(CN4CCN(C)CC4)c(C#N)c3c2=O)c2scc(C(=O)O)c2n1 [compound 489] | < 50 | 
Cc1cc(-c2cc(Cl)ccc2OCCn2c(C)nc3c(F)cc(C(F)F)c(C#N)c3c2=O)c2cccc(C(=O)O)c2n1 [compound 490] | 50 to 1000 | 
Cc1cc(-c2cc(Cl)ccc2OCCn2c(C)nc3c(C(C)C)ncc(C#N)c3c2=O)c2scc(C(=O)O)c2n1 [compound 491] | < 50 | 22.9
Cc1cc(-c2cc(Cl)ccc2OCCn2c(C)nc3c(C)nc(C)c(C#N)c3c2=O)c2scc(C(=O)O)c2n1 [compound 492] | < 50 | 29.7
Cc1nc2cc(Cl)c(S(C)(=O)=O)c(C#N)c2c(=O)n1CCOc1ccc(Cl)cc1-c1ccnc2c(C(=O)O)csc12 [compound 493] | 50 to 1000 | 94.2

Structure (SMILES) | IC50 [1] [nM] | IC50 [2] [nM]
Cc1nc2cc(C(F)(F)F)c(CC3CN(CC(F)(F)F)C3)c(C#N)c2c(=O)n1CCOc1ccc(Cl)cc1-c1ccnc2c(C(=O)O)csc12 [compound 494] | 50 to 1000 | 85.6
Cc1cnc2c(C(=O)O)csc2c1-c1cc(Cl)ccc1OCCn1c(C)nc2cc(C(F)(F)F)cc(C#N)c2c1=O [compound 495] | 50 to 1000 | 237
Cc1nc2cc(C(F)(F)F)cc(C#N)c2c(=O)n1CCOc1ccc(Cl)cc1-c1ccnc2c1CCC2C(=O)O (stereo not drawn) [compound 496] | > 1000 | 1060
Cc1nc2c(F)c(Cl)c(C(F)F)c(C#N)c2c(=O)n1CCOc1ccc(Cl)cc1-c1ccnc2c(C(=O)O)csc12 [compound 498] | < 50 | 24.2
Cc1nc2cc(C(F)(F)F)c(CN3CCOCC3)c(C#N)c2c(=O)n1CCOc1ccc(Cl)cc1-c1ccnc2c(C(=O)O)csc12 [compound 501] | < 50 | 25.7
Cc1nc2cc(C(F)(F)F)c(CN3CCN(C)CC3)c(C#N)c2c(=O)n1CCOc1ccc(Cl)cc1-c1ccnc2c(C(=O)O)csc12 [compound 502] | < 50 | 38.4
Cc1nc2cc(C(F)(F)F)c(CN(C)C)c(C#N)c2c(=O)n1CCOc1cc(F)c(Cl)cc1-c1ccnc2c(C(=O)O)csc12 [compound 503] | < 50 | 8.67
Cc1nc2c(F)cc(C(F)F)c(C#N)c2c(=O)n1CCOc1cc(F)c(Cl)cc1-c1ccnc2c(C(=O)O)csc12 [compound 504] | < 50 | 22.9
Cc1nc2cc(C(F)(F)F)c(Cl)c(C#N)c2c(=O)n1CCOc1cc(F)c(Cl)cc1-c1ccnc2c(C(=O)O)csc12 [compound 505] | < 50 | 43.6
Cc1nc2cc(F)c(F)c(C#N)c2c(=O)n1CCOc1cc(F)c(Cl)cc1-c1ccnc2c(C(=O)O)csc12 [compound 506] | 50 to 1000 | 68.9
Cc1nc2ccc(CCN(C)C)c(C#N)c2c(=O)n1CCOc1ccc(Cl)cc1-c1ccnc2c(C(=O)O)csc12 [compound 507] | < 50 | 49
Cc1nc2c(F)cc(CN(C)C)c(C#N)c2c(=O)n1CCOc1ccc(Cl)cc1-c1ccnc2c(C(=O)O)csc12 [compound 508] | < 50 | 15.2
Cc1nc2cc(Cl)c(CN(C)C)c(C#N)c2c(=O)n1CCOc1ccc(Cl)cc1-c1ccnc2c(C(=O)O)csc12 [compound 509] | 50 to 1000 | 125
Cc1nc2cc(C#N)c(CN(C)C)c(C#N)c2c(=O)n1CCOc1ccc(Cl)cc1-c1ccnc2c(C(=O)O)csc12 [compound 510] | 50 to 1000 | 50.5
Cc1cc2cc(C#N)c(CN(C)C)c(C#N)c2c(=O)n1CCOc1ccc(Cl)cc1-c1ccnc2c(C(=O)O)csc12 [compound 511] | 50 to 1000 | 88
Cc1nc2cc(CN(C)C)cc(C#N)c2c(=O)n1CCOc1ccc(Cl)cc1-c1ccnc2c(C(=O)O)csc12 [compound 512] | 50 to 1000 | 71.8
Cc1nc2cc(CCN(C)C)cc(C#N)c2c(=O)n1CCOc1ccc(Cl)cc1-c1ccnc2c(C(=O)O)csc12 [compound 513] | < 50 | 11.6
Cc1nc2cc(C(F)(F)CN(C)C)cc(C#N)c2c(=O)n1CCOc1ccc(Cl)cc1-c1ccnc2c(C(=O)O)csc12 [compound 514] | < 50 | 39.9

Second part, the compound after the results:

IC50 [1] [nM] | IC50 [2] [nM] | Structure (SMILES)
< 50 | 6.15 | Cc1cc(-c2cc(Cl)ccc2OCCn2c(C)nc3cc(C(F)(F)F)c(-c4cccnc4)nc3c2=O)c2scc(C(=O)O)c2n1 [compound 461]
< 50 | 10.5 | Cc1cc(-c2cc(Cl)ccc2OCCn2c(C)nc3cc(C(F)(F)F)c(-c4ccccn4)nc3c2=O)c2scc(C(=O)O)c2n1 [compound 462]
< 50 | 8.86 | Cc1cc(-c2nc3c(=O)n(CCOc4ccc(Cl)cc4-c4cc(C)nc5c(C(=O)O)csc45)c(C)nc3cc2C(F)(F)F)ccn1 [compound 463]
< 50 | 21.4 | Cc1cc(-c2cc(Cl)ccc2OCCn2c(C)nc3cc(C(F)(F)F)c(-c4ccncc4)nc3c2=O)c2scc(C(=O)O)c2n1 [compound 464]
< 50 | 15.1 | Cc1cc(-c2c(C(F)(F)F)cc3nc(C)n(CCOc4ccc(Cl)cc4-c4cc(C)nc5c(C(=O)O)csc45)c(=O)c3c2C#N)cc(C)n1 [compound 465]
< 50 | 9.3 | CCc1ncccc1-c1c(C(F)(F)F)cc2nc(C)n(CCOc3ccc(Cl)cc3-c3cc(C)nc4c(C(=O)O)csc34)c(=O)c2c1C#N [compound 466]
< 50 |  | Cc1cc(-c2cc(Cl)ccc2OCCn2c(C)nc3cc(C(F)(F)F)c(-c4ccccc4)nc3c2=O)c2scc(C(=O)O)c2n1 [compound 467]
< 50 | 4.36 | CCc1cc(-c2c(C(F)(F)F)cc3nc(C)n(CCOc4ccc(Cl)cc4-c4cc(C)nc5c(C(=O)O)csc45)c(=O)c3c2C#N)ccn1 [compound 468]
< 50 | 2.25 | Cc1cc(-c2c(C(F)(F)F)cc3nc(C)n(CCOc4ccc(Cl)cc4-c4cc(C)nc5c(C(=O)O)csc45)c(=O)c3c2C#N)c(C)cn1 [compound 469]
< 50 | 28.8 | Cc1cc(-c2c(C(F)(F)F)cc3nc(C)n(CCOc4ccc(Cl)cc4-c4cc(C)nc5c(C(=O)O)csc45)c(=O)c3c2C#N)c(F)cn1 [compound 471]
< 50 | 23.6 | Cc1cc(-c2cc(Cl)ccc2OCCn2c(C)nc3cc(C(F)(F)F)c(-c4ccnc(C)c4F)c(C#N)c3c2=O)c2scc(C(=O)O)c2n1 [compound 472]
< 50 | 14.5 | Cc1cc(-c2cc(Cl)ccc2OCCn2c(C)nc3cc(C(F)(F)F)c(Cc4ncccc4F)c(C#N)c3c2=O)c2scc(C(=O)O)c2n1 [compound 473]
< 50 | 13.5 | Cc1cc(-c2cc(Cl)ccc2OCCn2c(C)nc3c(C)nc(-c4ccc(F)cc4)c(C#N)c3c2=O)c2scc(C(=O)O)c2n1 [compound 474]
< 50 | 17 | Cc1cc(-c2cc(Cl)ccc2OCCn2c(C)nc3c(C)nc(-c4cccc(F)c4)c(C#N)c3c2=O)c2scc(C(=O)O)c2n1 [compound 475]
< 50 |  | Cc1cccc(-c2nc(C)c3nc(C)n(CCOc4ccc(Cl)cc4-c4cc(C)nc5c(C(=O)O)csc45)c(=O)c3c2C#N)c1 [compound 478]
< 50 | 10.5 | Cc1cc(-c2cc(Cl)ccc2OCCn2c(C)nc3c(C)nc(-c4cccc(Cl)c4)c(C#N)c3c2=O)c2scc(C(=O)O)c2n1 [compound 481]

Source: patent US11286268B1, “EIF4E-inhibiting compounds and methods” (EFFECTOR THERAPEUTICS, INC., priority 2019, dated 2022)
